Reference: patent US20240392241A1, “METHOD FOR PRODUCING CELL MASS INCLUDING PITUITARY TISSUE AND CELL MASS” (SUMITOMO CHEMICAL COMPANY, LIMITED, priority 2021, published 2024)

Key:
Format in all cases: cell-based
[1] = test system: human iPS cells (1231A3 strain); assay: Timing of JNK inhibitor addition in pituitary organoid differentiation, bright field observation (Example 2); details: observed day 28
Description: In Example 2, according to step shown in FIG. 2A, a cell population including cells that constitute pituitary tissue was produced. Specifically, human iPS cells (1231A3 strain, obtained from RIKEN) were cultured under feeder-free conditions according to the method described in Scientific Reports, 4, 3594 (2014). As the feeder-free medium, StemFit medium was used and, as the feeder-free scaffold, Laminin 511-E8 was used.
Differentiation induction was performed under the same conditions as in Example 1 except for the condition of adding a JNK inhibitor, compared to the conditions of Example 1. As the condition for adding JNK inhibitor, conditions including addition of JNK—IN-8 (manufactured by Merck, 1 μM), which is a c-Jun N-terminal kinase (JNK) inhibitor, on days 0, 2, 6, 10, and 13 after the start of differentiation induction were compared with conditions without addition of JNK inhibitor. When the JNK inhibitor is added on days 2, 6, 10, and 13 after the start of differentiation induction, 2 μM was added to the medium when adding or replacing the medium, so that the final concentration in the well would be 1 μM.
On day 28 after the start of suspension culture, bright field observation by polarized illumination was performed using an inverted microscope (manufactured by KEYENCE CORPORATION, BIOREVO BZ-X800) (FIG. 2B).

[2] = test system: human iPS cells (201B7 strain); assay: Immunostaining of ACTH and E-cadherin in cell aggregates on day 103 (Example 7)
Description: According to the steps shown in FIG. 10A, suspension culturing was performed using human iPS cells (201B7 strain) in the same manner as in Example 4, and continued until day 103. Using the obtained cell aggregates, cryosections were prepared in the same manner as in Example 3. The obtained sections were subjected to immunostaining using anti-ACTH antibody (manufactured by Fitzgerald Industries) and anti-E-cadherin antibody (manufactured by Takara Bio Inc.), and the nucleus was stained with DAPI. […] The scale bar at the bottom right of FIG. 10B indicates 200 μm.

[3] = test system: human iPS cells (HC-6 #10 strain); assay: Pituitary organoid differentiation from human iPS cells, phase contrast observation of cell mass (Example 1); details: JNK—IN-8 1 μM from day 0
Description: Human iPS cells (HC-6 #10 strain, obtained from RIKEN) were cultured under feeder-free conditions according to the method described in Scientific Reports, 4, 3594 (2014). As the feeder-free medium, StemFit medium (manufactured by Ajinomoto Co., Inc.) was used and, as the feeder-free scaffold, Laminin 511-E8 (manufactured by Nippi, Inc.) was used.
As specific maintenance culturing operation, subconfluent human iPS cells (HC-6 #10 strain) were first washed twice with 0.5 mM EDTA/PBS and further treated with 5 mM EDTA/PBS at 37° C. for 10 min. After pipetting, the cells were scraped from the surface of the culture dish and dispersed into single cells. Thereafter, the human iPS cells dispersed into single cells were seeded in a plastic culture dish coated with Laminin 511-E8, and cultured under feeder-free conditions in StemFit medium in the presence of Y-27632 (ROCK inhibiting substance, manufactured by FUJIFILM Wako Pure Chemical Corporation, 10 μM). When a 6-well plate (manufactured by Corning, for cell culturing, culture area 9.5 cm^2) was used as the plastic culture dish, the number of plated cells of the human iPS cells dispersed into single cells was adjusted to 7×10^3. One day after seeding, the entire amount of the medium was changed with StemFit medium free of Y-27632. Thereafter, once in 1-2 days, the entire amount of the medium was changed with StemFit medium free of Y-27632. […]

Cc1cc(NC(=O)c2cccc(NC(=O)/C=C/CN(C)C)c2)ccc1Nc1nccc(-c2cccnc2)n1 [JNK—IN-8, (E)-3-(4-(dimethylamino)but-2-enamido)-N-(3-methyl-4-((4-(pyridin-3-yl)pyrimidin-2-yl)amino)phenyl)benzamide]
formation of nonneural epithelium/pituitary vs no addition ([1]; JNK—IN-8 1 μM added on days 0, 2, and 6 after start of differentiation induction): formed more efficiently
formation of nonneural epithelium/pituitary vs no addition ([1]; JNK—IN-8 1 μM added on days 10 and 13 after start of differentiation): no difference
proportion of ACTH-positive cells in the entire cell aggregate ([2]; JNKi(+), mean±SEM, n=8-12): 42.2±4.4 % of total cells
proportion of E-cadherin-positive cells in the layer covering the surface of cell aggregates vs non-addition control ([2]; JNK—IN-8 added): higher
differentiation efficiency (surface covered with nonneural epithelial/placode-like tissue, unintended cells suppressed) ([3]; day 28, vs no addition): improved
size of the cell mass, smaller in diameter than without addition of JNK inhibitor ([3]; day 28 of suspension culture): about 100 μm
